Measured values as given in US20250090699A1, “FAP TARGETING CYCLIC PEPTIDES AND CONJUGATES THEREOF” (Novartis AG, priority 2023, published 2025).
pIC50, pKd: −log10 of the molar value. Starred links: 1 amine or outer side, 2 acyl side, 3 side chain; linkers in the order of their positions; H or OH if unused. Positions of bridges follow the written chain, without caps; N, C: chain ends. Non-standard residues stand in square brackets, D forms with d. Residues, ends and D or L forms follow the SMILES beside them. Groups on a side chain read outwards from the residue. Chains are numbered I, II in the order given. *: point of attachment. X1 = O=C(O)CN1CCN(CC(=O)O)CCN(CC(=O)NC(CC(=O)NCCOCCOCC(=O)[*:1])CC(=O)NCCOCCOCC(=O)[*:2])CCN(CC(=O)O)CC1; DOTA = O=C(O)CN1CCN(CC(=O)O)CCN(CC(=O)*)CCN(CC(=O)O)CC1; Nicotinoyl(6-NMe3+) = C[N+](C)(C)c1ccc(C(=O)*)cn1; Phe(4-CH2NH2) = NCc1ccc(C[C@H](N)C(=O)O)cc1; Piperazinyl(4-CH2COOH) = O=C(O)CN1CCN(*)CC1; Nicotinoyl(6-F) = O=C(c1ccc(F)nc1)*; NMeF = CN[C@@H](Cc1ccccc1)C(=O)O; Aoc(2) = CCCCCC[C@H](N)C(=O)O; hSer = N[C@@H](CCO)C(=O)O; AEEA = NCCOCCOCC(=O)O; CO = O=C([*:1])[*:2]; Propyl = CCC*

Legend:
human FAP [1] = target: T1, human FAP (Homo sapiens, UniProt Q12884); assay: Surface plasmon resonance (SPR) for peptide affinity, human FAP; format: binding; details: read-out: h. FAP, SPR, KD
T1 construct: the biotinylated His, Avi tag, human FAP (26-760, FAP-H82Q6); His; Avi tag (biotinylated); purchased AcroBiosystems FAP-H82Q6
T1 sequence (Q12884 26-760): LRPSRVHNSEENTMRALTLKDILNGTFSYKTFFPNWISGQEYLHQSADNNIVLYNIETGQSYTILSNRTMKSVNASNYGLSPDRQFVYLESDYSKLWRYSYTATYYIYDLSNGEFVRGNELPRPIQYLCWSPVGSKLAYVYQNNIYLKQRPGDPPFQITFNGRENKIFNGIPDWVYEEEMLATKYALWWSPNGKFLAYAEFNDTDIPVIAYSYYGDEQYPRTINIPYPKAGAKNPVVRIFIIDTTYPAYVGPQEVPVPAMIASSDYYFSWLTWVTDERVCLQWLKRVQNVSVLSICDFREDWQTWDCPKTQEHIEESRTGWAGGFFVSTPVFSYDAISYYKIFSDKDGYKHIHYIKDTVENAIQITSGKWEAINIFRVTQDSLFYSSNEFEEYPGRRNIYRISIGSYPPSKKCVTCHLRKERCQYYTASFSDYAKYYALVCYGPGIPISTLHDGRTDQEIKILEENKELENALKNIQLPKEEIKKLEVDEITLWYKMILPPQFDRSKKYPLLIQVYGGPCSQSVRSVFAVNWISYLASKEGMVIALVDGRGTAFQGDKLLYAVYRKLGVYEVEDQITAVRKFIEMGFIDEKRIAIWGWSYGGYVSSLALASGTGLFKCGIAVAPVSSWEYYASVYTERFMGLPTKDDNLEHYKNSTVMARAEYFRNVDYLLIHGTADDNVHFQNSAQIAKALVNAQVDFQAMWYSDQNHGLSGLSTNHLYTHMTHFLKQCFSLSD
Method: Peptide affinities (KD) were determined by SPR using a Biacore™ 8K device (Cytiva) towards the following proteins: biotinylated His, Avi tag, human FAP (26-760, FAP-H82Q6), biotinylated His, Avi tag, mouse FAP (26-761, FAP-M82Q5), His tag, human DPP4 (34-766, DP4-H82E3), all purchased from AcroBiosystems and His tag, mouse DPP4 (29-760, 954-SE) from R&D Systems. The FAP proteins and their homologous were diluted to a concentration of 2 μg/mL into acetate buffer pH 5.5, then immobilized onto a CM5 sensorchip (Cytiva, BR-1005-30) to reach a response around 2000 R U. The running buffer HBS-EP+pH 7.6 (20× from Teknova CAT. No: H8022) contained 10 mM HEPES pH 7.6, 150 mM NaCl, 3 mM EDTA, 0.05% Tween20 and 2% DMSO. Experiments were carried out at 25° C. using a flow rate of 30 μL/min. Compounds were tested in single cycle kinetic mode at 8 different concentrations. Curve fitting was performed using the Biacore™ 8K evaluation software. The sensorgrams were fitted by applying a 1:1 binding model to calculate kinetic rate constants and equilibrium dissociation constants (KD).
For this assay, the setup had the same conditions (flow rate, running buffer, peptide dilution) as described above for the CM5 method. The oligo CAP reagent obtained in the CAPture Kit (Ref. 28920234) was 1/5 diluted into running buffer and used with a contact time of 300 s at a flow rate of 2 μL/min. The human and mouse FAP constructs described above were used (from AcroBiosystems or produced in house). The FAP proteins were diluted to a concentration of 2 μg/mL into acetate pH 5.5, 0.05% Tween20 and used with a contact time of 600 s at a flow rate of 10 μL/min. The peptides were tested with an association time of 280 s followed by a dissociation time of 3000 s at a flow rate of 30 μL/min. The regeneration was done using the regeneration solution (8 M guanidine-HCl, 1 M NaOH) as obtained with a contact time of 270 s at a flow rate of 10 μL/min. […] The compounds marked with an asterisk were tested against human and mouse DDP4.

mouse FAP [2] = target: T2, mouse FAP (Mus musculus, UniProt P97321); assay: Surface plasmon resonance (SPR) for peptide affinity, mouse FAP; format: binding
T2 construct: biotinylated His, Avi tag, mouse FAP (26-761, FAP-M82Q5); His; Avi tag (biotinylated); purchased AcroBiosystems FAP-M82Q5
T2 sequence (P97321 26-761): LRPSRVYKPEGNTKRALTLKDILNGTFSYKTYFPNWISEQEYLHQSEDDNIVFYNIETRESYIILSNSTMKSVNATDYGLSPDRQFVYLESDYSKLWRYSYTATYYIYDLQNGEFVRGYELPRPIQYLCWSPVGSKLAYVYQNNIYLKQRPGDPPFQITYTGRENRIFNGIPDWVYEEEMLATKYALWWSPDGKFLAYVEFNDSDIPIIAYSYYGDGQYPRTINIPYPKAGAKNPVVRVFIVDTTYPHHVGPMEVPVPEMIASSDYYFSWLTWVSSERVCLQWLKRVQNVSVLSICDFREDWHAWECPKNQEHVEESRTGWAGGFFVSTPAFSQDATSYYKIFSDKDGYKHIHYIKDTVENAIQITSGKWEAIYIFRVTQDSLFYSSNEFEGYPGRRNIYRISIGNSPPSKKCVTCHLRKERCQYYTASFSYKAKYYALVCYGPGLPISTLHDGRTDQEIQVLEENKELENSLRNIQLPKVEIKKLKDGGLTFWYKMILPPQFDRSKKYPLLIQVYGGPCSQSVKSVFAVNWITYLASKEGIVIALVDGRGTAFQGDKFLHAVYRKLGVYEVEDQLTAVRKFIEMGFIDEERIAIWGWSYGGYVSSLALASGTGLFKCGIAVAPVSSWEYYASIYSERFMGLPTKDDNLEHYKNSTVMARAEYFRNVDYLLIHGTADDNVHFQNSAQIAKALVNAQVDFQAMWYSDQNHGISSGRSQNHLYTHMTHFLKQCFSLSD
How it was run: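 KD values come from a 1:1 kinetic fit of single-cycle SPR data: 8 peptide concentrations, 25 °C, 30 μL/min, HEPES-buffered saline pH 7.6 with 2% DMSO. Targets were His/Avi-tagged human (26-760) or mouse (26-761) FAP, amine-coupled to CM5 or held on a CAPture chip.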

human FAP [3] = target: T1, human FAP; assay: Enzymatic FAP competition assay (Z-Gly-Pro-AMC fluorescence), human FAP; format: biochemical; details: read-out: h. FAP, Enz., IC50
How it was run: (§1)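 IC50 values come from curve fitting of duplicate % inhibition data on AMC fluorescence (ex 380, em 460 nm) after 4 h at 22-24° C with 50 μM Z-Gly-Pro-AMC. Beforehand, peptides up to 1 μM (14 levels) sat 24 h with 0.01 nM human (26-760) or mouse (26-761) tagged FAP in phosphate buffer pH 7.5, NaCl, Tween20, 1% DMSO.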

mouse FAP [4] = target: T2, mouse FAP; assay: Enzymatic FAP competition assay (Z-Gly-Pro-AMC fluorescence), mouse FAP; format: biochemical; details: read-out: m. FAP, Enz., IC50
How it was run: as §1

SMILES	pKd (human FAP [1])	pKd (mouse FAP [2])	pIC50 (human FAP [3])	pIC50 (mouse FAP [4])
CCCOCC[C@@H]1NC(=O)[C@H](Cc2ccc(CNC(=O)COCCOCCNC(=O)CN3CCN(CC(=O)O)CCN(CC(=O)O)CCN(CC(=O)O)CC3)cc2)NC(=O)[C@H](Cc2ccccc2)N(C)C(=O)CNC(=O)CNC(=O)[C@H]2CCCN2C(=O)[C@H](CC(=O)O)NC(=O)[C@H](CCCCNC(=O)N2CCN(CC(=O)O)CC2)NC(=O)CNC(=O)[C@H](Cc2c[nH]c3ccccc23)NC1=O [Example B2, Gly-Gly-NMePhe-F(4ampEG2NHDOTA)-hS(Pr)-Trp-Gly-K(COpipzaa)-Asp-D-Pro] (cyclo(D[dP]GG[NMeF][Phe(4-CH2NH2)]([AEEA-DOTA])[hSer](Propyl)WGK([CO-Piperazinyl(4-CH2COOH)])))	> 10.89	> 10.66	11.15	10.74
CCCOCC[C@@H]1NC(=O)[C@H](Cc2ccc(CNC(=O)COCCOCCNC(=O)c3ccc(F)nc3)cc2)NC(=O)[C@H](Cc2ccccc2)N(C)C(=O)CNC(=O)CNC(=O)[C@H]2CCCN2C(=O)[C@H](CC(=O)O)NC(=O)[C@H](CCCCNC(=O)N2CCN(CC(=O)O)CC2)NC(=O)CNC(=O)[C@H](Cc2c[nH]c3ccccc23)NC1=O [Example C56, Gly-Gly-NMePhe-F(4amPEG2NHCOPy3(4F))-hS(Pr)-Trp-Gly-K(Copipzaa)-Asp-D-Pro] (cyclo(D[dP]GG[NMeF][Phe(4-CH2NH2)]([AEEA-Nicotinoyl(6-F)])[hSer](Propyl)WGK([CO-Piperazinyl(4-CH2COOH)])))	> 11.15	> 10.64	11.05	10.43
CCCCCC[C@@H]1NC(=O)[C@H](Cc2ccc(CNC(=O)COCCOCCNC(=O)c3ccc([N+](C)(C)C)nc3)cc2)NC(=O)[C@H](Cc2ccccc2)N(C)C(=O)CNC(=O)CNC(=O)[C@H]2CCCN2C(=O)[C@H](CC(=O)O)NC(=O)[C@H](CCCCNC(=O)N2CCN(CC(=O)O)CC2)NC(=O)CNC(=O)[C@H](Cc2c[nH]c3ccccc23)NC1=O [Example C57, Gly-Gly-NMePhe-F(4amPEG2NHCOPy3(4(NMe3)))-Aoc-Trp-Gly-K(COpipzaa)-Asp-D-Pro] (cyclo([Aoc(2)]WGK([CO-Piperazinyl(4-CH2COOH)])D[dP]GG[NMeF][Phe(4-CH2NH2)]([AEEA-Nicotinoyl(6-NMe3+)])))	> 10.89	> 10.85	11.22	10.80
CCCOCC[C@@H]1NC(=O)[C@H](Cc2ccc(CNC(=O)COCCOCCNC(=O)c3ccc([N+](C)(C)C)nc3)cc2)NC(=O)[C@H](Cc2ccccc2)N(C)C(=O)CNC(=O)CNC(=O)[C@H]2CCCN2C(=O)[C@H](CC(=O)O)NC(=O)[C@H](CCCCNC(=O)N2CCN(CC(=O)O)CC2)NC(=O)CNC(=O)[C@H](Cc2c[nH]c3ccccc23)NC1=O [Example C58] (cyclo(D[dP]GG[NMeF][Phe(4-CH2NH2)]([AEEA-Nicotinoyl(6-NMe3+)])[hSer](Propyl)WGK([CO-Piperazinyl(4-CH2COOH)])))	> 11.15	> 10.77	11.22	10.77
CCCCCC[C@@H]1NC(=O)[C@H](Cc2ccc(CNC(=O)COCCOCCNC(=O)CC(CC(=O)NCCOCCOCC(=O)NCc3ccc(C[C@@H]4NC(=O)[C@H](Cc5ccccc5)N(C)C(=O)CNC(=O)CNC(=O)[C@H]5CCCN5C(=O)[C@H](CC(=O)O)NC(=O)[C@H](CCCCNC(=O)N5CCN(CC(=O)O)CC5)NC(=O)CNC(=O)[C@H](Cc5c[nH]c6ccccc56)NC(=O)[C@H](CCCCCC)NC4=O)cc3)NC(=O)CN3CCN(CC(=O)O)CCN(CC(=O)O)CCN(CC(=O)O)CC3)cc2)NC(=O)[C@H](Cc2ccccc2)N(C)C(=O)CNC(=O)CNC(=O)[C@H]2CCCN2C(=O)[C@H](CC(=O)O)NC(=O)[C@H](CCCCNC(=O)N2CCN(CC(=O)O)CC2)NC(=O)CNC(=O)[C@H](Cc2c[nH]c3ccccc23)NC1=O [Example M1] (I: cyclo(GG[NMeF][Phe(4-CH2NH2)][Aoc(2)]WGK([CO-Piperazinyl(4-CH2COOH)])D[dP]) / II: cyclo(GG[NMeF][Phe(4-CH2NH2)][Aoc(2)]WGK([CO-Piperazinyl(4-CH2COOH)])D[dP]); linker I:4-II:4 via X1)	> 10.52	> 10.24	10.41	9.87
CCCOCC[C@@H]1NC(=O)[C@H](Cc2ccc(CNC(=O)COCCOCCNC(=O)CC(CC(=O)NCCOCCOCC(=O)NCc3ccc(C[C@@H]4NC(=O)[C@H](Cc5ccccc5)N(C)C(=O)CNC(=O)CNC(=O)[C@H]5CCCN5C(=O)[C@H](CC(=O)O)NC(=O)[C@H](CCCCNC(=O)N5CCN(CC(=O)O)CC5)NC(=O)CNC(=O)[C@H](Cc5c[nH]c6ccccc56)NC(=O)[C@H](CCOCCC)NC4=O)cc3)NC(=O)CN3CCN(CC(=O)O)CCN(CC(=O)O)CCN(CC(=O)O)CC3)cc2)NC(=O)[C@H](Cc2ccccc2)N(C)C(=O)CNC(=O)CNC(=O)[C@H]2CCCN2C(=O)[C@H](CC(=O)O)NC(=O)[C@H](CCCCNC(=O)N2CCN(CC(=O)O)CC2)NC(=O)CNC(=O)[C@H](Cc2c[nH]c3ccccc23)NC1=O [Example M3] (I: cyclo(GG[NMeF][Phe(4-CH2NH2)][hSer](Propyl)WGK([CO-Piperazinyl(4-CH2COOH)])D[dP]) / II: cyclo(GG[NMeF][Phe(4-CH2NH2)][hSer](Propyl)WGK([CO-Piperazinyl(4-CH2COOH)])D[dP]); linker I:4-II:4 via X1)	> 10.37	> 10.11	10.46	9.84
